The structures appear in SMILES notation.

Type in all cases: in vivo, human
Experiment [1] concerns umami-taste. Kind of experiment: Sensory panel tasting of 0.3% NaCl solution. As to conditions: Solution B: 0.3% NaCl and 10 ppm geranyl lactamide; trained sensory panel of 20 women; Solution A (0.3% NaCl only): salty. The protocol: Two solutions were prepared: A a solution of 0.3% NaCl B a solution of 0.3% NaCl and 10 ppm geranyl lactamide The samples were tasted by a trained sensory panel composed of 20 women aged between 30 and 60.

For experiment [2], the system named is umami-taste. Kind of experiment: Sensory panel tasting of 0.3% NaCl and 0.03% MSG solution. The following applies: Solution B: 0.3% NaCl, 0.03% MSG and 10 ppm geranyl lactamide, trained sensory panel of 20 women, Solution A without compound: salty. The protocol:
Two solutions were prepared: A a solution of 0.3% NaCl and 0.03% MSG B a solution of 0.3% NaCl, 0.03% MSG and 10 ppm geranyl lactamide The samples were tasted by a trained sensory panel composed of 20 women aged between 30 and 60.

The test system of experiment [3] is umami-taste. The experiment can be described thus: Flavourist tasting of tomato soup. As to conditions: tomato soup containing 15 ppm geranyl lactamide; flavourists (2 male, 2 female). On the procedure:
A tomato soup mix was prepared from 9.4 g of sodium chloride, 1 g of mono sodium glutamate, 0.08 g ribonucleotides (ex yeast), 32 g of tomato powder (ex […]), 25.1 g of glucose, 21 g of starch (Ultrasperse 5 ex National Starch), 5 g of palm fat powder, 3 g of yeast powder, 1 g of onion powder, 0.15 g of carrot powder, 0.05 g of ground white pepper, 0.3 g of celery extract powder, 0.05 g of ground laurel leaf powder, and 1.85 g of sucrose. 25 G of the well mixed ingredients was added to 250 g of boiling water and stirred until completely dissolved. The reference soup was compared with a batch of the same soup containing 15 ppm of geranyl lactamide.

Experiment [4] has as its system umami-taste. The experiment can be described thus: Sensory panel tasting of flavoured potato chips. As to conditions: for taste description of potato chips: trained sensory panel of 20 women. The protocol: Plain potato chips were prepared. One part was flavoured with 1.2% sodium chloride (sample A) One part was flavoured with 1.2% sodium chloride and 0.3% mono sodium glutamate (sample b) One part was flavoured with 1.2% sodium chloride and 25 ppm geranyl lactamide (sample C). The samples were tasted by a trained sensory panel composed of 20 women aged between 30 and 60.

In experiment [5] the test system is umami-taste. Kind of experiment: Flavourist tasting of tomato ketchup. As to conditions: tomato ketchup with 20 ppm geranyl lactamide; flavourists (2 male, 2 female). On the procedure:
A tomato ketchup was prepared from 19% tomato paste (28-30% dry weight), 8% of vinegar (15%), 3% of sodium chloride, 20% of sugar and 50% of water. To one half of the batch was added 20 ppm of geranyl lactamide.

As to `CC(C)=CCC/C(C)=C/CNC(=O)C(C)O` (stereo not shown) [geranyl lactamide], the “taste description (findings of the panel)” value is on record as “salty, umami” in the experiment with umami-taste [1] and “salty, umami, more bouillon-like, more complex, less sweet” in the experiment on umami-taste [2]. In addition, the “taste of test soup compared with reference soup” value with umami-taste [3] is “more umami, had a long-lasting savoury aspect, was more salty and was more complex than the base soup”. Further, the “panel preference among potato chip samples” value in the experiment on umami-taste [4] (sample C (1.2% sodium chloride and 25 ppm geranyl lactamide) vs sample A (NaCl) and sample B (NaCl and 0.3% MSG)) is “preferred over the other two samples”. Besides, the “taste description of potato chips” value in the experiment with umami-taste [4] (sample C: 1.2% sodium chloride and 25 ppm geranyl lactamide) is given as “salty, umami, long lasting, savoury, bouillon”. The “taste of test ketchup compared with base ketchup” value in the experiment on umami-taste [5] was “clearly more umami, more salty and had a pleasant savoury note”.
Take `N[C@@H](CCC(=O)O)C(=O)[O-].[Na+]` [mono sodium glutamate, reference compound]: the “taste description of potato chips” value in the experiment with umami-taste [4] (sample B: 1.2% sodium chloride and 0.3% mono sodium glutamate) was “salty and umami”.

Values taken from patent publication US8815321B2, “Geranylamine derivatives as flavouring agents” (Givaudan S.A., priority 2009, dated 2014).
